Test results published in ChEMBL document CHEMBL1144938, “Human beta-secretase (BACE) and BACE inhibitors” (J Med Chem, 2003).
Numbered stars: 1 amine (or outer) side, 2 acyl side, 3 side chain; on linkers, the order of the positions; unused ones are H or OH. Square brackets hold non-standard residues; d marks the D form. Peptide text beside a SMILES is read from it. Sta = CC(C)C[C@H](N)[C@@H](O)CC(=O)O; X1 = CCC(O)[C@H](N[*:1])C(=O)[*:2]; Orn = NCCC[C@H](N)C(=O)O

Tests used:
Beta-secretase 1 [1] = target: T1, Beta-secretase 1 (Homo sapiens, UniProt P56817); experiment: Compound was tested for its inhibitory activity against human beta-Secretase (BACE)
Beta-secretase 1 [2] = target: T1, Beta-secretase 1; experiment: Compound was tested for its effective concentration against human beta-Secretase (BACE)

T1 sequence (P56817 whole entry): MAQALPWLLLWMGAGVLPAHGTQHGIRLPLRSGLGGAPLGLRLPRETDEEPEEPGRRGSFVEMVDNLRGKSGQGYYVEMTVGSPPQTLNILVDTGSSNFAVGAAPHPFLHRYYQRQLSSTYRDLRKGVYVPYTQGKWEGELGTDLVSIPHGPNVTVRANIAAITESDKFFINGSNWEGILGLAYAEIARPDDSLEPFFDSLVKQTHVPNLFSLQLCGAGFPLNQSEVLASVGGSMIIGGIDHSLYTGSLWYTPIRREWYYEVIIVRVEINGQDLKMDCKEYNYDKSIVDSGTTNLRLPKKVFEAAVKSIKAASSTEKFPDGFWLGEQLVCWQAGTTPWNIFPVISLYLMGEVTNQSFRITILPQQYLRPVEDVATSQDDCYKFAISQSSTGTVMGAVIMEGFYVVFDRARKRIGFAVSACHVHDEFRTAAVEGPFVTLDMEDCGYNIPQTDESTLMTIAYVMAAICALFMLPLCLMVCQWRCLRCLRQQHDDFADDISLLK

Row | IC50 (Beta-secretase 1 [1]) [nM] | EC50 (Beta-secretase 1 [2]) [nM] | Structure (SMILES)
1 | 2 |  | CSCC[C@H](NC(=O)[C@@H](NC(=O)OC(C)(C)C)C(C)C)C(=O)N[C@@H](CC(C)C)[C@@H](O)C[C@@H](C)C(=O)N[C@H](C(=O)NCc1ccccc1)C(C)C
2 | 30 |  | CCC(O)[C@H](NC(=O)[C@@H](N)CCCN)C(=O)N[C@@H](CCC(=O)O)C(=O)N[C@@H](CCC(=O)O)C(=O)N[C@H](C(=O)N[C@@H](CO)C(=O)N[C@@H](CCC(=O)O)C(=O)N[C@H](C(=O)N[C@@H](CCSC)C(=O)N[C@@H](CC(C)C)[C@@H](O)CC(=O)N[C@H](C(=O)N[C@@H](C)C(=O)N[C@@H](CCC(=O)O)C(=O)N[C@@H](Cc1ccccc1)C(=O)O)C(C)C)C(C)C)[C@@H](C)CC (stereo partly specified) (H-[Orn][X1]EEISEVM[Sta]VAEF-OH)
3 | 120 | 4000 | COC(=O)c1cc(NC(=O)[C@@H](NC(=O)C[C@H](O)[C@H](Cc2cc(F)cc(F)c2)NC(=O)C(O)c2ccccc2-c2ccccc2)C(C)C)cc(C(=O)OC)c1 (stereo partly specified)
4 | 20 | 10000 | CC(C)[C@H](NC(=O)C[C@H](O)[C@H](Cc1cc(F)cc(F)c1)NC(=O)C(O)c1ccccc1-c1ccccc1)C(=O)Nc1cc(C(=O)O)cc(C(=O)O)c1 (stereo partly specified)
